From US20110263423A1, “Plant Health Composition” (BASF SE, priority 2008, published 2011)

Tested on: Maize (Pioneer 34-N-45)
Test: Maize field trial, mixture with epoxiconazol, Colby synergism (Example 6)
Assay type: in vivo
Conditions: 50 g a.i./ha of each compound
Procedure: Maize was grown in 2008 in a field trial at the BASF experimental station in Dinuba, 10181 Avenue 416, Calif., U.S.A. The variety Pioneer 34-N-45 was planted at a seeding rate of 35.000 plants/ha. The trial was setup as a randomized bloc design with 5 replications, each. Plot size was 43 m^2.
The maize plants were either untreted, treated with epoxiconazol (A3), with compound Ia, and with a mixture comprising compound Ia and epoxiconazol. Epoxiconazol was applied as the commercial formulation OPUS™ (125 g a.i./L, SC formulation) at a dose rate of 0.4 L/ha (50 g a.i./ha). Compound Ia was used as an EC formulation (62.5 g a.i./L) with a dose rate of 0.8 L per hectar (50 g a.i./ha). Epoxiconazol was applied together with compound Ia (as a mixture) using a co-formulation of both compounds (EC formulation, 62.5 g a.i./L each) with a product rate of 0.8 L/ha. The formulation was applied in a total spray volume of 300 L/ha. Compound Ia was sprayed at growth stage 51/55 (BBCH) with a tractor mounted spray boom with VS11003 spray nozzles at 3 bar spray pressure.
No disease symptoms were visible at the application time and no symptoms were detected at later stages.
At maturity the grain was harvested and the grain yield per plot, as an indicator of plant yield, was determined (kg/plot). Finally, the grain yield per hectare was calculated (dt/ha).
The efficacy was calculated as % increase of the grain yield (dt/ha) by each treatment compared to the untreated control.
The expected efficacies of the combinations of the active compounds were estimated using Colby's formula (Colby, S. R., Calculating synergistic and antagonistic responses of herbicide combinations, Weeds, 15, pp. 20-22, 1967) and compared with the observed efficacies.
E=x+y−x·y/100 Colby's formula: • E expected efficacy, expressed in % of the untreated control, when using the mixture of the active compounds A and B at the concentrations a and b • x efficacy, expressed in % of the untreated control, when using the active ingredient A at the concentration a • y efficacy, expressed in % of the untreated control, when using the active ingredient B at the concentration b

In the case of `Fc1ccc([C@]2(Cn3cncn3)O[C@H]2c2ccccc2Cl)cc1` (racemic) [Epoxiconazol (A3), epoxiconazole, reference compound], the “Observed efficacy (% increase of grain yield vs untreated control)” value is reported as 0.9% and the Grain yield (BBCH 51/55) is reported as 155.8 dt/ha.
